Common to all, as to assay: NCI anticancer screen, dose series, 48 h
Test [1] concerns A498 renal.
In test [2] the test system is ACHN renal.
The test system of test [3] is OVCAR-5 ovarian.
The subject of test [4] is RXF 393 renal.
In test [5] the test system is HCT-15 colon.
Test [6] relates to HS 578T breast.
In test [7] the test system is SW-620 colon.
Test [8] has as its system SNB-75 CNS.
In test [9] the test system is SK-OV-3 ovarian.
Test [10] concerns LOX IMVI melanoma.
The test system of test [11] is SNB-19 CNS.
Test [12] relates to RPMI-8226 leukemia.
Test [13] has as its system SK-MEL-28 melanoma.
For test [14], the system named is OVCAR-3 ovarian.
The subject of test [15] is MDA-MB-435.
Test [16] deals with M14 melanoma.

Structures are written as SMILES.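 How tested: cells in 96-well plates exposed to compound for 48 hours at five concentrations. Definition used: TGI = concentration required for complete inhibition of growth.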

On to `S=c1[nH]n2c(COc3cc(Cl)c(OCc4nnc5sc(=S)[nH]n45)cc3Cl)nnc2s1`, for which the TGI in test [1], in [2], in test [3], in test [4], in test [5] and in test [6] was greater than 100 µM in each case. Further, the TGI in [7], in [8], in [9], in test [10], in [11] and in test [12] was greater than 100 µM throughout. The TGI in test [13], in test [14], in [15] and in [16] was greater than 100 µM in each case.

As for `Cc1cc(C)nc(NS(=O)(=O)c2ccc(Nc3c4ccccc4nc4ccc(C(=O)Nc5ccc(S(=O)(=O)N=C(N)N)cc5)cc34)cc2)n1`, the TGI in [1], in [2], in test [3], in test [4], in test [5] and in test [6] was greater than 100 µM throughout. The TGI in [7] was greater than 100 µM; in [8] it was greater than 100 µM; in test [9] it was greater than 100 µM; in test [10] it was 34.4 µM; in [11], greater than 100 µM; in [12] it was greater than 100 µM. Moreover, the TGI in test [13], in [14], in [15] and in test [16] was greater than 100 µM in each case.

For `O=C1C2CC[C@@H]3C(=O)C(Cl)(Cl)[C@@H]3CCC2C1(Cl)Cl` (some centres not stated), the TGI in test [1], in [2], in test [3], in test [4], in test [5] and in [6] was greater than 100 µM each time. The TGI in test [7], in [8], in [9], in test [10], in test [11] and in test [12] was greater than 100 µM throughout. Besides, the TGI in [13], in [14], in test [15] and in [16] was greater than 100 µM each time.

For `CSc1nc(C)c2c(n1)N(c1ccc(Cl)cc1)CC2`, the TGI in [1], in test [2], in [3], in [4], in test [5] and in test [6] was greater than 100 µM throughout. In addition, the TGI in test [7] is greater than 100 µM; in [8], 38.8 µM; in test [9], greater than 100 µM; in test [10], greater than 100 µM; in test [11], greater than 100 µM; in test [12], greater than 100 µM. Also, the TGI in [13], in [14], in [15] and in test [16] was greater than 100 µM each time.

For the molecule `C=CCNC1=C2C[C@@H](C)C[C@@H](OC)[C@H](OC(=O)CCN(C)C)[C@H](C)/C=C(\C)[C@@H](OC(N)=O)[C@H](OC)/C=C\C=C(/C)C(=O)NC(=CC1=O)C2=O`, the TGI came to 21.4 µM in test [1]; 22.2 µM in test [2]; 25.8 µM in test [3]; 11.7 µM in test [4]; 19.9 µM in test [5]; 40.4 µM in [6]. For the same molecule, the TGI was greater than 51.3 µM in test [7]; 0.741 µM in [8]; 2.73 µM in test [9]; 11.2 µM in test [10]; 23.1 µM in [11]; greater than 41.9 µM in test [12]. The TGI in [13] stood at 21.9 µM; in test [14], 3.61 µM; in test [15] it was 13.2 µM; in test [16], 20.1 µM.

For `O=C(O)CCC1NC(/C(=C/c2ccccc2O)NC(=O)c2ccccc2)OC1=O` (configuration not stated), the TGI in test [1], in test [2], in test [3], in [4], in test [5] and in test [6] was greater than 100 µM throughout. Besides, the TGI in test [7] was greater than 100 µM; in [8], 72.4 µM; in [9], greater than 100 µM; in [10] it was greater than 100 µM; in [11] it was greater than 100 µM; in [12], greater than 100 µM. Besides, the TGI in test [13], in [14], in test [15] and in test [16] was greater than 100 µM each time.

Turning to `CC(CC=O)Nc1nn2c(=O)c3ccccc3nc2s1` (configuration not stated), the TGI in test [1], in test [2], in [3], in test [4], in [5] and in test [6] was greater than 100 µM each time. Besides, the TGI in test [7], in [8], in [9], in test [10], in test [11] and in test [12] was greater than 100 µM each time. Also, the TGI in test [13], in [14], in test [15] and in test [16] was greater than 100 µM each time.

For `COC(=O)C(=O)C(C(=O)C(=O)Nc1ccc(C)c(C)c1)c1nc2ccc([N+](=O)[O-])cc2[nH]c1=O` (configuration not stated), the TGI in test [1], in test [2], in test [3], in test [4], in test [5] and in test [6] was greater than 100 µM in each case. Further, the TGI in test [7], in test [8], in [9], in test [10], in test [11] and in [12] was greater than 100 µM in each case. Besides, the TGI in test [13], in [14], in [15] and in [16] was greater than 100 µM throughout.

As for `Cc1cc(=O)n2nc(CSc3nnc(Sc4cc(O)ccc4O)s3)sc2n1`, the TGI in test [1], in [2], in [3], in test [4], in [5] and in [6] was greater than 100 µM throughout. In addition, the TGI in test [7] is 44.5 µM; in test [8], greater than 100 µM; in test [9] it was greater than 100 µM; in test [10] it was 36.3 µM; in test [11], greater than 100 µM; in test [12] it was 61.4 µM. The TGI in test [13] is greater than 100 µM; in [14], greater than 100 µM; in [15], 32.7 µM; in [16] it was greater than 100 µM.

Consider `CCC1CN2CCc3c([nH]c4ccccc34)[C@@](C(=O)OC)(c3cc4c(cc3OC)N(C)C3C(O)(C(=O)OC)C(C(=O)OC)C5(CC)C=CCN6CCC43C65)C[C@@H](C2)[C@@H]1C(C)(C)C` (some centres not stated), for which the TGI in [1] is 1.12 µM; in test [2] it was greater than 10 µM; in [3], greater than 10 µM; in test [4], greater than 10 µM; in test [5], 2.82 µM; in [6], greater than 6.86 µM. Further, the TGI in test [7] was greater than 10 µM; in test [8], greater than 10 µM; in test [9] it was greater than 10 µM; in [10], 2 µM; in test [11], greater than 2.53 µM; in test [12], greater than 4.43 µM. The TGI in test [13] was greater than 10 µM; in test [14], greater than 2.85 µM; in test [15], 0.462 µM; in test [16], 8.22 µM.

`CC(=O)O[C@H]1C(=O)[C@@]2(C)[C@H]([C@H](OC(=O)c3ccco3)[C@]3(O)C[C@H](OC(=O)[C@H](O)[C@@H](NC(=O)c4ccccc4)c4ccccc4)C(C)=C1C3(C)C)[C@]1(OC(C)=O)CO[C@@H]1C[C@@H]2O`: the TGI in [1] was greater than 25 µM; in test [2], greater than 25 µM; in test [3], greater than 25 µM; in test [4], 3.76 µM; in test [5], greater than 25 µM; in [6] it was greater than 8.33 µM. Further, the TGI was greater than 25 µM in test [7]; 3.87 µM in test [8]; 10 µM in test [9]; greater than 25 µM in test [10]; greater than 25 µM in test [11]; 0.131 µM in test [12]. In addition, the TGI was greater than 25 µM in test [13], 0.225 µM in test [14], 0.0591 µM in [15] and greater than 25 µM in test [16].

For `CCc1cc2c(c3c1CCCC3=O)CC1(C2)Cc2cc(CC)c3c(c2C1)C(=O)CCC3`, the TGI in [1], in test [2], in test [3], in test [4], in test [5] and in test [6] was greater than 100 µM throughout. Further, the TGI in test [7], in test [8], in [9], in test [10], in test [11] and in test [12] was greater than 100 µM in each case. Moreover, the TGI in [13], in [14], in test [15] and in test [16] was greater than 100 µM each time.
